In general, AC50 refers to the midpoint of the concentration-response curve, whichever way the signal moves.

Molecules are shown by their SMILES.

Chain of Cytochrome P450 2C19 (P33261 whole entry): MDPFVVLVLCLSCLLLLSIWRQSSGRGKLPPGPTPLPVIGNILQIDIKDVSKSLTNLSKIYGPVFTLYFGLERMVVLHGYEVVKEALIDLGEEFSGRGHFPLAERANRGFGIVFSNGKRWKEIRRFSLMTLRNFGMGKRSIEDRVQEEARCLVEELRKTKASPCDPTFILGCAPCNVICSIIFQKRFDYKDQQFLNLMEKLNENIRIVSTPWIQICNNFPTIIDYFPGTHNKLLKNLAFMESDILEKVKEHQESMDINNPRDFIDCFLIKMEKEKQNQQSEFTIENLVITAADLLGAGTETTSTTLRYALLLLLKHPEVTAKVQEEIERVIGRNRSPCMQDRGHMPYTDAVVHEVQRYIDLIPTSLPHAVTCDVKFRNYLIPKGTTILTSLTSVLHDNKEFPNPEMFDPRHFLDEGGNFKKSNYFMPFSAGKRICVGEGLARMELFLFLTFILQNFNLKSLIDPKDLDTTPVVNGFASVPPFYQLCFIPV

The first data set has as its target Cytochrome P450 2C19 (Homo sapiens, UniProt P33261). The data set can be described thus: Cytochrome panel assay with activity outcomes. Panel member name: p450-cyp2c19 Compounds with AC50 equal or less than 10 uM are considered active.
Conditions: not given
The class given is functional.
Regarding `Cc1cccc(-c2c3c(=O)n(C)c(=O)n(C)c3cn2C2CCCCC2)c1`, the concentration at half-maximal activity (AC50) result is given as “inconclusive”.

In the case of `O=C1[C@@H]2[C@H]3[C@H](O)[C@H](O)C/C(=N/OC[C@@H](O)COCc4ccco4)[C@H]3CC[C@H]2C(=O)N1c1ccc(F)cc1F`, the AC50 result was “inconclusive”.

On to `Cc1cc(C)nc(NN2C(=O)/C(=C/c3ccccc3)SC2=S)n1`, for which the half-maximal activity concentration (AC50) entry was “inconclusive”. On to `Cc1noc(C)c1C(=O)N1CCC[C@@]2(CCN(Cc3cc(C(F)(F)F)cc(C(F)(F)F)c3)C2)C1`, for which the AC50 entry is “inconclusive”.

Still in this data set, the particulars now being: read-out: AC50.
Turning to `O=C(Nc1ccc2ccccc2c1)c1onc2c1CCCC2`, the concentration at half-maximal activity (AC50) was 15.8 µM (inconclusive). For `C/C(Cl)=C/CSc1nnc2n(N)c(=O)c3ccccc3n12`, the AC50 was 25.1 µM (inconclusive). With `CCC1(O)c2ccccc2-c2ncccc21` (stereo unspecified), the half-maximal activity concentration (AC50) is 39.8 µM (inconclusive). Consider `Clc1ccc(-c2nnc(-c3ccc(Br)cc3)c(N3CCSCC3)n2)cc1`, for which the concentration at half-maximal activity (AC50) is 11.2 µM (inconclusive). Consider `Cn1cccc1C(=O)N1CCC2(CCN(Cc3ccccc3)CC2)CC1`, for which the half-maximal activity concentration (AC50) was 39.8 µM (inconclusive). Regarding `CCOC(=O)c1cc(NC(=O)c2ccc(C)cc2)c(=O)oc1-c1ccccc1`, the concentration at half-maximal activity (AC50) was 2.82 µM (inconclusive). On the same count and under the same terms, then `NCCNC(=S)S`, with 3.98 µM (inconclusive); and `CC(C)(CS)C(=O)N1CCC[C@H]1C(=O)O`, with 15.8 µM (inconclusive). On the same count and under the same terms, for `COc1ccc(Oc2ncc3nc(-c4ccc(Cl)cc4)c(=O)n(C[C@H]4CCCO4)c3n2)cc1` the value was 25.1 µM (inconclusive); for `Clc1ccc(C(c2ccc(Cl)cc2)[n+]2ccn(C[C@@H](OCc3ccc(Cl)cc3Cl)c3ccc(Cl)cc3Cl)c2)cc1`, 25.1 µM (inconclusive). For the compound `Cc1ccc2[nH]c3nc(CCCn4ccnc4-c4ccccc4)nnc3c2c1`, the AC50 is 2.51 µM (inconclusive). On to `COCCCn1nnnc1SCC(=O)N1CCCC1`, for which the AC50 is 25.1 µM (inconclusive). As for `Cc1nnc(S)n1/N=C/c1ccccc1OCc1ccc(Cl)cc1`, the AC50 was 11.2 µM (inconclusive). On to `COc1ccc(C(Cl)=C(c2ccc(OC)cc2)c2ccc(OC)cc2)cc1` [CHLOROTRIANISENE], for which the concentration at half-maximal activity (AC50) is 0.1 µM (inconclusive).

For another data set, the target named is T1, Cytochrome P450 1A2 (Homo sapiens, UniProt P05177).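 Further: PubChem cytochrome P450 panel assay, CYP1A2 panel member.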
T1 sequence (P05177 whole entry): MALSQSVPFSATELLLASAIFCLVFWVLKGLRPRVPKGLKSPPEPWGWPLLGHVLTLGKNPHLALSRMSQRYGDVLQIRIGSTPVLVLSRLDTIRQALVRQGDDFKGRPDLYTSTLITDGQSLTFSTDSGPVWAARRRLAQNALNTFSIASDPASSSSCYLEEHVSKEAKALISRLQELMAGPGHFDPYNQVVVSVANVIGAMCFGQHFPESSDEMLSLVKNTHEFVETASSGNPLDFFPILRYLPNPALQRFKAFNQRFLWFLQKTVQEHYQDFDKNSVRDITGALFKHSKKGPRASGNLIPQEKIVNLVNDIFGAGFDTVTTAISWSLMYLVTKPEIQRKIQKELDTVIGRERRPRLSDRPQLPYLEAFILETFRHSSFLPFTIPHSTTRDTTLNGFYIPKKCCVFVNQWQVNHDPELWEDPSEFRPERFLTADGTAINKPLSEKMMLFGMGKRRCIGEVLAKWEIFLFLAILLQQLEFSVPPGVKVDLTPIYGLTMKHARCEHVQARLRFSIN
Conditions: not given
Regarding `O=S(=O)(c1ccccc1)N1CCC2(CCCN(c3ncccn3)C2)CC1`, the concentration at half-maximal activity (AC50) is 15.8 µM (inconclusive). For the compound `CC(C)C[C@H]1C(=O)N2CCC[C@@H]2[C@@]2(O)O[C@](NC(=O)[C@@H]3C=C4c5cccc6[nH]cc(c56)C[C@@H]4N(C)C3)(C(C)C)C(=O)N12`, the concentration at half-maximal activity (AC50) was 12.6 µM (inconclusive). For the compound `Cc1ccc(CN(C(=O)c2cc3ccccc3oc2=O)C2CCS(=O)(=O)C2)cc1` (stereo unspecified), the concentration at half-maximal activity (AC50) was 31.6 µM (inconclusive). Consider `CCCCN1C(=O)/C(=C\c2ccco2)C(=O)N(CCc2ccccc2)C1=O`, for which the AC50 is 28.2 µM (inconclusive).

On to `CCc1ccc(C(=O)N2CCC(c3nc4ccccc4s3)CC2)cc1`, for which the concentration at half-maximal activity (AC50) is 17.8 µM (inconclusive). As for `Cc1cc(=O)n2c3ccccc3n(CC(O)CN3CCCCC3)c2c1C#N` (stereo unspecified), the AC50 was 15.8 µM (inconclusive). For `O=C(Oc1ccccc1)N1CCC[C@@]2(CCN(C(c3ccccc3)c3ccccc3)C2)C1`, the AC50 was 25.1 µM (inconclusive). For `C[C@H]1C2=C3C(CC[C@H]4C(OCc5ccc(F)cc5C(F)(F)F)OC[C@](C)([C@@H]34)N(C(=O)OC(C)(C)C)C2)C2COC(=O)OCC21` (stereo partly specified), the concentration at half-maximal activity (AC50) was 6.31 µM (inconclusive). As for `COC(=O)[C@@]1(Cc2ccc(F)cc2)[C@H]2c3cc(C(=O)N4CCCC4)n(CCc4ccc(OC)c(Br)c4)c3C[C@H]2CN1C(=O)c1ccccc1`, the AC50 is 15.8 µM (inconclusive). As for `COc1ccc(Nc2cc(=O)n(C3CCCCC3)c(=O)[nH]2)c(OC)c1`, the AC50 is 31.6 µM (inconclusive). Take `CN(C)C(=O)c1ccc(-c2ccc3ncnc(NCCN4CCOCC4)c3c2)cc1`: the AC50 was 25.1 µM (inconclusive). Consider `CNCCC=C1c2ccccc2C=Cc2ccccc21`, for which the concentration at half-maximal activity (AC50) was 6.31 µM (inconclusive). Same read-out and setting: then `COc1cc2c(C(=O)NCc3ccc(C)o3)cn(CC(C)C)c(=O)c2cc1OC`, with 1.58 µM (inconclusive); and `COc1cccc(Nc2ncc3nc(CCc4ccccc4)c(=O)n(Cc4cccs4)c3n2)c1`, with 3.16 µM (inconclusive); and `Cc1ccc(-n2ncc(N(C)C)c(Cl)c2=O)cc1`, with 14.1 µM (inconclusive).

Regarding `Cc1cccc2c(SCC(=O)NCC3CCCO3)nc(-c3ccc(F)cc3)nc12` (stereo unspecified), the AC50 is 0.447 µM (inconclusive). Same read-out and setting: for `Cc1nnc2ccccc2c1O` the value was 0.398 µM (inconclusive); for `CO/C(O)=C1\C(C)=NC(C)=C([N+](=O)[O-])[C@H]1c1ccccc1C(F)(F)F`, 31.6 µM (inconclusive); for `CC(C)(C)NC[C@@H](O)COc1ccccc1C1CCCC1`, 10 µM (inconclusive). Regarding `CCOc1ccc(Cc2nccc3cc(OCC)c(OCC)cc23)cc1OCC` [ETHAVERINE], the concentration at half-maximal activity (AC50) was 10 µM (inconclusive). On to `CN1CCN2c3ncccc3Cc3ccccc3C2C1` (stereo unspecified) [MIRTAZAPINE], for which the AC50 is 20 µM (inconclusive).

In the next data set the target is Cytochrome P450 3A4 (Homo sapiens, UniProt P08684).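 Further: CYP3A4 tested as one member of a cytochrome P450 panel screen.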
Chain of Cytochrome P450 3A4 (P08684 whole entry): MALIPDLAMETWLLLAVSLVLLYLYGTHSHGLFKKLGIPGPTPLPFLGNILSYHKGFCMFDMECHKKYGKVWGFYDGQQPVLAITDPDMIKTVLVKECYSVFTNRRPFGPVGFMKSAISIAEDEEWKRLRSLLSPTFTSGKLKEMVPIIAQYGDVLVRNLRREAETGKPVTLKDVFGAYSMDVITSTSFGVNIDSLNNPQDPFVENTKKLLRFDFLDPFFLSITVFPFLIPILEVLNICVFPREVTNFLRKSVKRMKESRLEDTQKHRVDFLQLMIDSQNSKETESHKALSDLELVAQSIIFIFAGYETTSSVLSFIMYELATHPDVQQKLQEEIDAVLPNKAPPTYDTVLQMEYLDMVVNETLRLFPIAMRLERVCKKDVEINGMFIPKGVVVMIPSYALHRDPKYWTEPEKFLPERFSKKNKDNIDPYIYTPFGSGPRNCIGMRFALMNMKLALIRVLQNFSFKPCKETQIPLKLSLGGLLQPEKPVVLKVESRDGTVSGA
Conditions: not given
Turning to `Cc1ccc(CN(C(=O)c2cc3ccccc3oc2=O)C2CCS(=O)(=O)C2)cc1` (stereo unspecified), the AC50 is 4.47 µM (inconclusive).

Regarding `Fc1ccc(C2=Nn3c(Cc4ccccc4F)nnc3SC2)cc1`, the concentration at half-maximal activity (AC50) was 12.6 µM (inconclusive).

For `O=C1[C@@H]2[C@H]3[C@H](O)[C@H](O)C/C(=N/OC[C@@H](O)COCc4ccco4)[C@H]3CC[C@H]2C(=O)N1c1ccc(F)cc1F`, the AC50 is 3.16 µM (inconclusive). Take `CCCCN1C(=O)/C(=C\c2ccco2)C(=O)N(CCc2ccccc2)C1=O`: the AC50 was 12.6 µM (inconclusive). With `O=C(CC1C(=O)NCCN1C(=S)Nc1ccccc1)Nc1ccc2c(c1)OCCO2` (stereo unspecified), the half-maximal activity concentration (AC50) was 25.1 µM (inconclusive). On the same count and under the same terms, for `CCc1ccc(C(=O)N2CCC(c3nc4ccccc4s3)CC2)cc1` the value was 39.8 µM (inconclusive).

With `CCOc1ccc2nc(N3CCCCCC3)sc2c1`, the AC50 was 35.5 µM (inconclusive). For the compound `Cc1noc(C)c1C(=O)N1CCC[C@@]2(CCN(Cc3cc(C(F)(F)F)cc(C(F)(F)F)c3)C2)C1`, the AC50 was 7.94 µM (inconclusive).

In the case of `CCOC(=O)c1cc(NC(=O)c2ccc(C)cc2)c(=O)oc1-c1ccccc1`, the AC50 was 28.2 µM (inconclusive). Consider `Cc1cc2ccccn2c1C(=O)c1nc(N2CCOCC2)ncc1Cl`, for which the AC50 was 28.2 µM (inconclusive). As to `O=c1c(-c2cccs2)nc2cnc(N3CCOCC3)nc2n1-c1ccccc1`, the AC50 was 7.94 µM (inconclusive).

On to `CN(C)C(=O)c1ccc(-c2ccc3ncnc(NCCN4CCOCC4)c3c2)cc1`, for which the concentration at half-maximal activity (AC50) was 15.8 µM (inconclusive).

`CNCCC=C1c2ccccc2C=Cc2ccccc21`: the half-maximal activity concentration (AC50) is 12.6 µM (inconclusive).

Consider `COc1cccc(Nc2ncc3nc(CCc4ccccc4)c(=O)n(Cc4cccs4)c3n2)c1`, for which the AC50 was 6.31 µM (inconclusive). As for `Cc1ccc(-n2ncc(N(C)C)c(Cl)c2=O)cc1`, the concentration at half-maximal activity (AC50) was 28.2 µM (inconclusive). For the compound `Cc1ccc2[nH]c3nc(CCCn4ccnc4-c4ccccc4)nnc3c2c1`, the AC50 is 3.16 µM (inconclusive). With `CCC(C)Nc1c([N+](=O)[O-])cc(C)cc1[N+](=O)[O-]` (stereo unspecified), the half-maximal activity concentration (AC50) was 25.1 µM (inconclusive). The same measure, in the same setting: then `C/C(=N\OC(=O)NC(C)C)c1sc(-c2ccccc2)nc1C`, with 25.1 µM (inconclusive).

The target of a further data set is Cytochrome P450 2C9 (Homo sapiens, UniProt P11712).
Chain of Cytochrome P450 2C9 (P11712 whole entry): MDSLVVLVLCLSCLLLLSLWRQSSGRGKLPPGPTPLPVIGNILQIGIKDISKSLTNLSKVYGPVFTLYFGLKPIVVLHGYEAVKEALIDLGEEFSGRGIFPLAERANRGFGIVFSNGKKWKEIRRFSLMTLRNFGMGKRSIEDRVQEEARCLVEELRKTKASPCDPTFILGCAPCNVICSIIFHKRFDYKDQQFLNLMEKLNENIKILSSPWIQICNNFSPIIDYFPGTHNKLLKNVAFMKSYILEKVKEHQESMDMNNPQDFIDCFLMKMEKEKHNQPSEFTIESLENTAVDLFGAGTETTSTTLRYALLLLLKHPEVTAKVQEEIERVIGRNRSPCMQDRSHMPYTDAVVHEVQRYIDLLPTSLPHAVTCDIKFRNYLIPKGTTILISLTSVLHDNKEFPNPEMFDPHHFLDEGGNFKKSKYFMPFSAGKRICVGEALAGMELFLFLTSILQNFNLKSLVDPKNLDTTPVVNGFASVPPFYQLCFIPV
Conditions: not given
On to `Fc1ccc(C2=Nn3c(Cc4ccccc4F)nnc3SC2)cc1`, for which the AC50 is 2 µM (inconclusive). Take `C/C(Cl)=C/CSc1nnc2n(N)c(=O)c3ccccc3n12`: the concentration at half-maximal activity (AC50) was 22.4 µM (inconclusive). On the same count and under the same terms, then `O=C(CC1C(=O)NCCN1C(=S)Nc1ccccc1)Nc1ccc2c(c1)OCCO2` (stereo unspecified), with 35.5 µM (inconclusive). `Clc1ccc(-c2nnc(-c3ccc(Br)cc3)c(N3CCSCC3)n2)cc1`: the concentration at half-maximal activity (AC50) was 10 µM (inconclusive). Take `CCOc1ccc2nc(N3CCCCCC3)sc2c1`: the concentration at half-maximal activity (AC50) is 12.6 µM (inconclusive).

Turning to `Cc1cc2ccccn2c1C(=O)c1nc(N2CCOCC2)ncc1Cl`, the AC50 was 39.8 µM (inconclusive).

As for `O=c1c(-c2cccs2)nc2cnc(N3CCOCC3)nc2n1-c1ccccc1`, the AC50 was 10 µM (inconclusive). Regarding `NCCNC(=S)S`, the concentration at half-maximal activity (AC50) is 6.31 µM (inconclusive). Consider `COc1ccc(Nc2cc(=O)n(C3CCCCC3)c(=O)[nH]2)c(OC)c1`, for which the AC50 was 25.1 µM (inconclusive). Take `COc1cc2c(C(=O)NCc3ccc(C)o3)cn(CC(C)C)c(=O)c2cc1OC`: the half-maximal activity concentration (AC50) is 10 µM (inconclusive). As to `CCC(C)Nc1c([N+](=O)[O-])cc(C)cc1[N+](=O)[O-]` (stereo unspecified), the half-maximal activity concentration (AC50) is 15.8 µM (inconclusive).

`COCCCn1nnnc1SCC(=O)N1CCCC1`: the AC50 was 0.0126 µM (inconclusive). As for `C/C(=N\OC(=O)NC(C)C)c1sc(-c2ccccc2)nc1C`, the AC50 is 11.2 µM (inconclusive). For `CC(C)(C)NC[C@@H](O)COc1ccccc1C1CCCC1`, the half-maximal activity concentration (AC50) is 12.6 µM (inconclusive).

These data come from ChEMBL document CHEMBL1201862, “PubChem BioAssay data set” (2004).
